Assay results taken from PubChem BioAssay AID256 (DTP/NCI, 2004).
Values joined by “and” are separate entries in the source; they are usually repeats but may differ in a detail not shown here. Equal entries are not always repeated. Inconclusive results and toxic doses are left out. Rule for the calls: active = survival T/C of 150% or more; inactive = T/C below 125% in these data.

Test system: CD2F1 mice, L1210 leukemia ip, survival T/C
Assay: NCI In Vivo Anticancer Drug Screen. Data for tumor model L1210 Leukemia (intraperitoneal) in CD2F1 (CDF1) mice
Conditions: higher = longer survival
In short: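 Vehicle-treated tumor-bearing mice served as controls (C) for compound-treated mice (T). Reported figure is T divided by C.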

[1] = endpoint: mean survival time, dose: 50.0 mg/kg/injection, schedule: Q01DX009 (ip), vehicle: saline
[2] = endpoint: mean survival time, dose: 100.0 mg/kg/injection, schedule: Q01DX009 (ip), vehicle: saline
[3] = endpoint: mean survival time, dose: 100.0 mg/kg/injection, schedule: Q04DX003 (ip), vehicle: saline
[4] = endpoint: mean survival time, dose: 200.0 mg/kg/injection, schedule: Q04DX003 (ip), vehicle: saline
[5] = endpoint: mean survival time, dose: 400.0 mg/kg/injection, schedule: Q04DX003 (ip), vehicle: saline
[6] = endpoint: mean survival time, dose: 50.0 mg/kg/injection, schedule: Q01DX009 (ip), vehicle: saline with Tween-80
[7] = endpoint: mean survival time, dose: 100.0 mg/kg/injection, schedule: Q01DX009 (ip), vehicle: saline with Tween-80
[8] = endpoint: mean survival time, dose: 200.0 mg/kg/injection, schedule: Q01DX009 (ip), vehicle: saline with Tween-80
[9] = endpoint: mean survival time, dose: 100.0 mg/kg/injection, schedule: Q04DX003 (ip), vehicle: saline with Tween-80
[10] = endpoint: mean survival time, dose: 200.0 mg/kg/injection, schedule: Q04DX003 (ip), vehicle: saline with Tween-80
[11] = endpoint: mean survival time, dose: 400.0 mg/kg/injection, schedule: Q04DX003 (ip), vehicle: saline with Tween-80
[12] = endpoint: mean survival time, dose: 25.0 mg/kg/injection, schedule: Q01DX009 (ip), vehicle: saline with Tween-80
[13] = endpoint: mean survival time, dose: 400.0 mg/kg/injection, schedule: Q01DX009 (ip), vehicle: saline with Tween-80

Measured: T/C

COC1C(O)CC(=O)OC(C)C/C=C/C=C/C(OC2CCC(N(C)C)C(C)O2)C(C)CC(CC=O)C1OC1OC(C)C(OC2CC(C)(O)C(O)C(C)O2)C(N(C)C)C1O (configuration not stated)
inactive: endpoint: mean survival time, dose: 6.3 mg/kg/injection, schedule: Q03HX024 (ip), vehicle: saline 100 % of control | endpoint: mean survival time, dose: 12.5 mg/kg/injection, schedule: Q03HX008 (ip), vehicle: saline 100 % of control | endpoint: mean survival time, dose: 12.5 mg/kg/injection, schedule: Q03HX024 (ip), vehicle: saline 100 % of control | endpoint: mean survival time, dose: 25.0 mg/kg/injection, schedule: Q03HX008 (ip), vehicle: saline 97 % of control | endpoint: mean survival time, dose: 25.0 mg/kg/injection, schedule: Q03HX024 (ip), vehicle: saline 101 % of control | [1] 98 % of control | endpoint: mean survival time, dose: 50.0 mg/kg/injection, schedule: Q03HX008 (ip), vehicle: saline 100 % of control | endpoint: mean survival time, dose: 50.0 mg/kg/injection, schedule: Q03HX024 (ip), vehicle: saline 103 % of control | endpoint: mean survival time, dose: 100.0 mg/kg/injection, schedule: Q01DX001 (ip), vehicle: saline 102 % of control | [2] 96 % of control | endpoint: mean survival time, dose: 100.0 mg/kg/injection, schedule: Q03HX008 (ip), vehicle: saline 97 % of control | [3] 98 % of control | endpoint: mean survival time, dose: 200.0 mg/kg/injection, schedule: Q01DX001 (ip), vehicle: saline 98 % of control | endpoint: mean survival time, dose: 200.0 mg/kg/injection, schedule: Q01DX009 (ip), vehicle: saline 102 % of control | [4] 100 % of control | endpoint: mean survival time, dose: 400.0 mg/kg/injection, schedule: Q01DX001 (ip), vehicle: saline 106 % of control | endpoint: mean survival time, dose: 400.0 mg/kg/injection, schedule: Q01DX009 (ip), vehicle: saline 98 % of control | [5] 100 % of control

Clc1ccc(Oc2ccc(Cl)cc2)cc1
inactive: [6] 94 % of control | [7] 100 % of control | [8] 105 % of control

CC(=O)Nc1ccc(S(=O)(=O)/N=S(\C)c2ccc(C)cc2)cc1 (configuration not stated)
inactive: endpoint: mean survival time, dose: 100.0 mg/kg/injection, schedule: Q01DX009 (ip), vehicle: Klucel (hydroxypropylcellulose) (HPC) 95 % of control | endpoint: mean survival time, dose: 200.0 mg/kg/injection, schedule: Q01DX009 (ip), vehicle: Klucel (hydroxypropylcellulose) (HPC) 89 % of control | endpoint: mean survival time, dose: 400.0 mg/kg/injection, schedule: Q01DX009 (ip), vehicle: Klucel (hydroxypropylcellulose) (HPC) 91 % of control | endpoint: mean survival time, dose: 600.0 mg/kg/injection, schedule: Q01DX009 (ip), vehicle: Klucel (hydroxypropylcellulose) (HPC) 92 % of control

O=C(NN=C1CCCCC1)c1ccccc1
inactive: [7] 100 % of control | [9] 97 % of control | [8] 100 % of control | [10] 100 % of control | [11] 101 % of control

O=C(O)CCCc1ccc(Oc2ccccc2)cc1
inactive: endpoint: mean survival time, dose: 100.0 mg/kg/injection, schedule: Q01DX009 (ip), vehicle: other 94 % of control | endpoint: mean survival time, dose: 100.0 mg/kg/injection, schedule: Q04DX003 (ip), vehicle: other 106 % of control | endpoint: mean survival time, dose: 200.0 mg/kg/injection, schedule: Q01DX009 (ip), vehicle: other 95 % of control | endpoint: mean survival time, dose: 200.0 mg/kg/injection, schedule: Q04DX003 (ip), vehicle: other 93 % of control | endpoint: mean survival time, dose: 400.0 mg/kg/injection, schedule: Q01DX009 (ip), vehicle: other 96 % of control | endpoint: mean survival time, dose: 400.0 mg/kg/injection, schedule: Q04DX003 (ip), vehicle: other 95 % of control

CCOC(=O)c1c[nH]c2cc(OCC3CC3)c(OCC3CC3)cc2c1=O
inactive: [9] 95 % of control | [10] 95 % of control | [11] 93 % of control

CCCCOCN(COCCCC)C(C)Cc1ccccc1 (configuration not stated)
inactive: endpoint: mean survival time, dose: 12.5 mg/kg/injection, schedule: Q01DX009 (ip), vehicle: saline with Tween-80 94 % of control and 97 % of control | [12] 97 % of control and 102 % of control | [6] 93 % of control and 102 % of control | [7] 114 % of control and 95 % of control | [8] 123 % of control and 112 % of control

O=c1cc(-c2ccccc2)[nH]c2c1CCCC2
inactive: endpoint: median survival time, dose: 12.5 mg/kg/injection, schedule: Q01DX009 (ip), vehicle: saline with Tween-80 102 % of control | endpoint: median survival time, dose: 25.0 mg/kg/injection, schedule: Q01DX009 (ip), vehicle: saline with Tween-80 105 % of control | endpoint: median survival time, dose: 50.0 mg/kg/injection, schedule: Q01DX009 (ip), vehicle: saline with Tween-80 103 % of control and 108 % of control and 109 % of control | endpoint: median survival time, dose: 100.0 mg/kg/injection, schedule: Q01DX009 (ip), vehicle: saline with Tween-80 115 % of control and 116 % of control and 105 % of control | endpoint: median survival time, dose: 200.0 mg/kg/injection, schedule: Q01DX009 (ip), vehicle: saline with Tween-80 117 % of control and 120 % of control | endpoint: median survival time, dose: 400.0 mg/kg/injection, schedule: Q01DX009 (ip), vehicle: saline with Tween-80 90 % of control and 103 % of control

Nc1cc2c(cc1Br)-c1c(C(=O)O)cccc1C2O (configuration not stated)
inactive: endpoint: median survival time, dose: 50.0 mg/kg/injection, schedule: Q01DX005 (ip), vehicle: sodium bicarbonate 100 % of control | endpoint: median survival time, dose: 100.0 mg/kg/injection, schedule: Q01DX005 (ip), vehicle: sodium bicarbonate 101 % of control | endpoint: median survival time, dose: 200.0 mg/kg/injection, schedule: Q01DX005 (ip), vehicle: sodium bicarbonate 113 % of control | endpoint: median survival time, dose: 400.0 mg/kg/injection, schedule: Q01DX005 (ip), vehicle: sodium bicarbonate 122 % of control | endpoint: median survival time, dose: 800.0 mg/kg/injection, schedule: Q01DX005 (ip), vehicle: sodium bicarbonate 122 % of control

CC(=O)Nc1cc(C)ccc1O
inactive: [7] 98 % of control | [9] 96 % of control | [8] 95 % of control | [10] 104 % of control | [13] 87 % of control | [11] 90 % of control

O=C1C=CC(=O)N1c1ccccc1Cl (tested in a mixture with another compound)
inactive: [7] 95 % of control | [8] 96 % of control | [13] 98 % of control

CCCCCCCCCCCCCCCCOc1ccc(OCCCCCCCCC)cc1
inactive: endpoint: mean survival time, dose: 400.0 mg/kg/injection, schedule: Q01DX001 (ip), vehicle: saline with Tween-80 86 % of control

CN(N=O)c1nnnn1C
inactive: [3] 105 % of control | [4] 103 % of control | [5] 106 % of control

O=C1OC2(c3ccc(Cl)cc3Oc3cc(Cl)ccc32)c2ccccc21
inactive: endpoint: mean survival time, dose: 100.0 mg/kg/injection, schedule: Q04DX002 (ip), vehicle: Klucel (hydroxypropylcellulose) (HPC) 101 % of control | endpoint: mean survival time, dose: 200.0 mg/kg/injection, schedule: Q04DX002 (ip), vehicle: Klucel (hydroxypropylcellulose) (HPC) 97 % of control | endpoint: mean survival time, dose: 400.0 mg/kg/injection, schedule: Q04DX002 (ip), vehicle: Klucel (hydroxypropylcellulose) (HPC) 89 % of control

CCN(CC)CCCNC(C)=O
inactive: [3] 98 % of control | [4] 96 % of control | [5] 101 % of control

CC(C)OC(=O)C#CC(=O)O
inactive: endpoint: mean survival time, dose: 25.0 mg/kg/injection, schedule: Q01DX001 (ip), vehicle: saline 97 % of control | endpoint: mean survival time, dose: 50.0 mg/kg/injection, schedule: Q01DX001 (ip), vehicle: saline 97 % of control

[O-][n+]1onc2ccc(Cl)cc21
inactive: endpoint: mean survival time, dose: 100.0 mg/kg/injection, schedule: Q04DX003 (ip), vehicle: Klucel (hydroxypropylcellulose) (HPC) 102 % of control

Cc1cn(C2CC3OP(=O)(C(C)(C)C#N)OCC3O2)c(=O)[nH]c1=O (configuration not stated)
inactive: endpoint: median survival time, dose: 12.5 mg/kg/injection, schedule: Q01DX005 (ip), vehicle: distilled water + Tween-80 101 % of control | endpoint: median survival time, dose: 25.0 mg/kg/injection, schedule: Q01DX005 (ip), vehicle: distilled water + Tween-80 100 % of control | endpoint: median survival time, dose: 50.0 mg/kg/injection, schedule: Q01DX005 (ip), vehicle: distilled water + Tween-80 103 % of control | endpoint: median survival time, dose: 100.0 mg/kg/injection, schedule: Q01DX005 (ip), vehicle: distilled water + Tween-80 100 % of control | endpoint: median survival time, dose: 200.0 mg/kg/injection, schedule: Q01DX005 (ip), vehicle: distilled water + Tween-80 97 % of control

OCC(O)COCC#Cc1ccccc1 (configuration not stated)
inactive: endpoint: mean survival time, dose: 25.0 mg/kg/injection, schedule: Q01DX009 (ip), vehicle: water 97 % of control | endpoint: mean survival time, dose: 50.0 mg/kg/injection, schedule: Q01DX009 (ip), vehicle: water 92 % of control | endpoint: mean survival time, dose: 100.0 mg/kg/injection, schedule: Q01DX009 (ip), vehicle: water 101 % of control | endpoint: mean survival time, dose: 200.0 mg/kg/injection, schedule: Q01DX009 (ip), vehicle: water 101 % of control

O=C(O)CN(CCO)CCN(CC(=O)O)CC(=O)O
inactive: [12] 102 % of control | [6] 108 % of control | [7] 105 % of control | [3] 104 % of control

NCCc1cc(O)c(O)cc1O
inactive: [1] 93 % of control | [2] 104 % of control
